From patent publication US9951040B2, “1,3,5 -triazine based PI3K inhibitors as anticancer agents and a process for the preparation thereof” (Council of Scientific and Industrial Research, priority 2014, dated 2018)
Where two headings read alike, the source gives them in different places.

Key:
[1] = tested on: MDA-MB231 Cell line; experiment: MTT cell proliferation assay, MDA-MB231; format: cell-based; conditions: Homo sapiens, MDA-MB-231, 120 h, 5 days
Method: (§1) Human breast cancer cell lines MDAMB231, MFC-7 and human prostate carcinoma cell line PC-3 were obtained from European Collection of Cell Cultures (ECACC). Cells were grown in […] medium supplemented with 10% fetal bovine serum (FBS), penicillin (100 units/ml), streptomycin (100 μg/ml), L-glutamine (0.3 mg/ml), sodium pyruvate ([…]), and NaHCO3 (2 mg/ml). Cells were grown in CO2 incubator (Thermocon Electron Corporation, USA) at 37° C. in an atmosphere of 95% air and 5% CO2 with 98% humidity. Different molecules were dissolved in DMSO and were delivered to cell cultures in complete medium.
(§2) MTT assay was done to determine the viability of the cells and was done as described previously (Kumar et al, 2013). Briefly, 6×10^3 were seeded in 96 well plates and were treated with different concentrations of different molecules for 5 days. 20 μl of MTT dye (2.5 mg/ml) was added 3 h before the termination of the experiment. Formazen crystals were dissolved in 150 μl of DMSO and OD was measured at 570 nm.

[2] = tested on: MCF-7 Cell line; experiment: MTT cell proliferation assay, MCF-7; format: cell-based; conditions: Homo sapiens, MCF7, 120 h, 5 days
Method: as §1, §2

[3] = biological target: PI3K alpha (Homo sapiens, UniProt P42336); experiment: PI3K-α assay (ADP-Glo enzyme inhibition); format: biochemical; conditions: at 500 nm
Sequence of PI3K alpha (P42336 whole entry, species assumed): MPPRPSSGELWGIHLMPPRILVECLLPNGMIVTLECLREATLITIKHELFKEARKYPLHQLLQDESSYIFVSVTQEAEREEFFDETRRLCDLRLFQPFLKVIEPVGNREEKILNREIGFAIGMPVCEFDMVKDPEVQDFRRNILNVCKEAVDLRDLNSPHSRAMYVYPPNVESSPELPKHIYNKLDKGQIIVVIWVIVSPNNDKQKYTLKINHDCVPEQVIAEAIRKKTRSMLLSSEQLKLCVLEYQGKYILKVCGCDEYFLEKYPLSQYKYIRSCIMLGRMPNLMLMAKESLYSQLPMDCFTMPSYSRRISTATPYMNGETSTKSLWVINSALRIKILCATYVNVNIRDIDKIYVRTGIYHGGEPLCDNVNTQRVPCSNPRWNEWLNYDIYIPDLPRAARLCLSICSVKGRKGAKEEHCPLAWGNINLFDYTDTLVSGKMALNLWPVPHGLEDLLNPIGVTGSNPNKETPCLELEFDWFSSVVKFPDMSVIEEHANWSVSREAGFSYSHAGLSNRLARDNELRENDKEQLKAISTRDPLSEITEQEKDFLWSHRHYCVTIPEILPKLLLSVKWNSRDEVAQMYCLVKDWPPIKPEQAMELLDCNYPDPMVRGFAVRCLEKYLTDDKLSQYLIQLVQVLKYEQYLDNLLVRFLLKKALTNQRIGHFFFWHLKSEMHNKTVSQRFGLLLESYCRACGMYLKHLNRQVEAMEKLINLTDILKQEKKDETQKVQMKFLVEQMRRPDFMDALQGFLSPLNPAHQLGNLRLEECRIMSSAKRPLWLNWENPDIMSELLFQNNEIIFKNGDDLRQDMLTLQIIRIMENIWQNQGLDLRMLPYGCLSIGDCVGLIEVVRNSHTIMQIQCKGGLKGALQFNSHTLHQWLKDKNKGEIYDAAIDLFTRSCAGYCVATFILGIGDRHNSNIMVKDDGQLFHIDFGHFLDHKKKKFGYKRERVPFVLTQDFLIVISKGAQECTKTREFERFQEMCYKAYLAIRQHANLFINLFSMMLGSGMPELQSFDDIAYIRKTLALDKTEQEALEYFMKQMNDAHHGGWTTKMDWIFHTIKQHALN
Sequence of PI3K alpha (P27986 whole entry partner, species assumed): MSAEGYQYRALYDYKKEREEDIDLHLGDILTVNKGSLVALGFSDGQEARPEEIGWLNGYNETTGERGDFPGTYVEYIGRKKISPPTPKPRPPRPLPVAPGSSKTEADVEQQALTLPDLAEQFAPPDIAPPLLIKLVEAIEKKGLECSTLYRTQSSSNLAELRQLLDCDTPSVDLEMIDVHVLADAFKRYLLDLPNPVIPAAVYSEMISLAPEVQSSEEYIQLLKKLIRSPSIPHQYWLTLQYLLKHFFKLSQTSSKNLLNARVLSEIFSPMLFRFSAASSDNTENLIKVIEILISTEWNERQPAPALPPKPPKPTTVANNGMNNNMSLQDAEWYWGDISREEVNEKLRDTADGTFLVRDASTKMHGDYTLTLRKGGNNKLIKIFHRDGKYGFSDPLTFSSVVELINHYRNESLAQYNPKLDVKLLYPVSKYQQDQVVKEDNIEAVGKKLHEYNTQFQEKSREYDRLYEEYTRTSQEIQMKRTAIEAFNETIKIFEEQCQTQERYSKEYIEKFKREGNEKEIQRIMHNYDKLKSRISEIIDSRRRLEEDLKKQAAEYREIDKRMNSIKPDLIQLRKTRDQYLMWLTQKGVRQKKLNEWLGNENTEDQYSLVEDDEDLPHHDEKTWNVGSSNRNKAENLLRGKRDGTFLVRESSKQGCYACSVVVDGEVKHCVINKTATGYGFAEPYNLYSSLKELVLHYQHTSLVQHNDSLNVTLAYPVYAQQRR
Method: Compounds were evaluated for their ability to inhibit class I PI3-kinase enzyme alpha as given below. PI3K-α Assay: PI3K alpha (diluted in 12.5 mM Glycine-NaOH (pH 8.5), 50 mM KCl, 2.5 mM MgCl2, 1 mM DTT, 0.05% CHAPS) is assayed in total volume of 20 ul containing 12.5 mM glycine-NaOH (pH 8.5), 50 mM KCl, 2.5 mM MgCl2, 1 mM DTT, 0.05% CHAPS, 0.01 mM ATP and 0.05 mM diC8 PIP2. The enzyme is assayed for 80 min after which 20 ul of ADP-Glo reagent is added. After a further incubation of 40 min, 40 ul of Kinase Detection Buffer is added. The assays are incubated for 40 min and then read on PerkinElmer Envision for 1 sec/well.

[4] = tested on: PC-3 Cell line; experiment: MTT cell proliferation assay, PC-3; format: cell-based; conditions: Homo sapiens, PC-3, 120 h, 5 days
Method: as §1, §2

[5] = read-out: In vitro PI3K α % of inhibition
[6] = read-out: inhibition against PI3K alpha

inhibition at 0.5 µM [3, 5] [%] | inhibition at 0.5 µM [3, 6] [%] | Structure (SMILES) | inhibition at 10 µM [1] [%] | inhibition at 10 µM [2] [%] | inhibition at 10 µM [4] [%] | In vitro PI3K α % of inhibition [3]
> 70 | > 70 | Cc1ccccc1OC1CCN(c2nc(N3CCOCC3)nc(-n3c(C(F)F)nc4ccccc43)n2)CC1 [1B12, 4-(4-(2-(difluoromethyl)-1H-benzo[d]imidazol-1-yl)-6-(4-(o-tolyloxy)piperidin-1-yl)-1,3,5-triazin-2-yl)morpholine] | 30 to 50 | > 50 | 30 to 50 | –
> 70 | > 70 | FC(F)c1nc2ccccc2n1-c1nc(N2CCOCC2)nc(N2CCC(Nc3ccc(Cl)c(Cl)c3)CC2)n1 [1B26, N-(3,4-dichlorophenyl)-1-(4-(2-(difluoromethyl)-1H-benzo[d]imidazol-1-yl)-6-morpholino-1,3,5-triazin-2-yl)piperidin-4-amine] | > 50 | > 50 | 30 to 50 | –
50 to 70 | – | Cc1ccc(NC2CCN(c3nc(N4CCOCC4)nc(-n4c(C(F)F)nc5ccccc54)n3)CC2)cc1 [1B30, 1-(4-(2-(difluoromethyl)-1H-benzo[d]imidazol-1-yl)-6-morpholino-1,3,5-triazin-2-yl)-N-(p-tolyl)piperidin-4-amine] | 30 to 50 | > 50 | 30 to 50 | –
50 to 70 | – | FC(F)c1nc2ccccc2n1-c1nc(N2CCOCC2)nc(N2CCC(Oc3ccccc3Cl)CC2)n1 [1B7, 4-(4-(4-(2-chlorophenoxy)piperidin-1-yl)-6-(2-(difluoromethyl)-1H-benzo[d]imidazol-1-yl)-1,3,5-triazin-2-yl)morpholine] | 30 to 50 | > 50 | – | –
– | – | FC(F)c1nc2ccccc2n1-c1nc(N2CCOCC2)nc(N2CCOCC2)n1 [ZSTK474, reference compound] | > 50 | > 50 | > 50 | ++ (++ indicates greater than 70% of inhibition)
50 to 70 | – | FC(F)c1nc2ccccc2n1-c1nc(N2CCOCC2)nc(N2CCC(Nc3ccc(C(F)(F)F)cc3)CC2)n1 [1B22, 1-(4-(2-(difluoromethyl)-1H-benzo[d]imidazol-1-yl)-6-morpholino-1,3,5-triazin-2-yl)-N-(4-(trifluoromethyl)phenyl)piperidin-4-amine] | – | 30 to 50 | 30 to 50 | –
50 to 70 | – | Cc1ccccc1NC1CCN(c2nc(N3CCOCC3)nc(-n3c(C(F)F)nc4ccccc43)n2)CC1 [1B32, 1-(4-(2-(difluoromethyl)-1H-benzo[d]imidazol-1-yl)-6-morpholino-1,3,5-triazin-2-yl)-N-(o-tolyl)piperidin-4-amine] | 30 to 50 | > 50 | 30 to 50 | –
50 to 70 | – | Fc1ccccc1NC1CCN(c2nc(N3CCOCC3)nc(-n3c(C(F)F)nc4ccccc43)n2)CC1 [1B27, 1-(4-(2-(difluoromethyl)-1H-benzo[d]imidazol-1-yl)-6-morpholino-1,3,5-triazin-2-yl)-N-(2-fluorophenyl)piperidin-4-amine] | 30 to 50 | > 50 | 30 to 50 | –
> 70 | > 70 | COc1ccc(NC2CCN(c3nc(N4CCOCC4)nc(-n4c(C(F)F)nc5ccccc54)n3)CC2)cc1 [1B24, 1-(4-(2-(difluoromethyl)-1H-benzo[d]imidazol-1-yl)-6-morpholino-1,3,5-triazin-2-yl)-N-(4-methoxyphenyl)piperidin-4-amine] | 30 to 50 | – | – | –
> 70 | > 70 | FC(F)c1nc2ccccc2n1-c1nc(N2CCOCC2)nc(N2CCC(Nc3ccc(OC(F)(F)F)cc3)CC2)n1 [1B23, 1-(4-(2-(difluoromethyl)-1H-benzo[d]imidazol-1-yl)-6-morpholino-1,3,5-triazin-2-yl)-N-(4-(trifluoromethoxy)phenyl)piperidin-4-amine] | – | 30 to 50 | 30 to 50 | –
50 to 70 | – | FC(F)c1nc2ccccc2n1-c1nc(N2CCOCC2)nc(N2CCC(Oc3cccc(Cl)c3)CC2)n1 [1B6, 4-(4-(4-(3-chlorophenoxy)piperidin-1-yl)-6-(2-(difluoromethyl)-1H-benzo[d]imidazol-1-yl)-1,3,5-triazin-2-yl)morpholine] | – | > 50 | 30 to 50 | –
> 70 | > 70 | Fc1ccc(OC2CCN(c3nc(N4CCOCC4)nc(-n4c(C(F)F)nc5ccccc54)n3)CC2)cc1 [1B1, 4-(4-(2-(difluoromethyl)-1H-benzo[d]imidazol-1-yl)-6-(4-(4-fluorophenoxy)piperidin-1-yl)-1,3,5-triazin-2-yl)morpholine] | > 50 | > 50 | > 50 | –
50 to 70 | – | FC(F)c1nc2ccccc2n1-c1nc(N2CCOCC2)nc(N2CCC(Oc3ccc(Cl)cc3)CC2)n1 [1B5, 4-(4-(4-(4-chlorophenoxy)piperidin-1-yl)-6-(2-(difluoromethyl)-1H-benzo[d]imidazol-1-yl)-1,3,5-triazin-2-yl)morpholine] | 30 to 50 | > 50 | – | –
> 70 | > 70 | FC(F)c1nc2ccccc2n1-c1nc(N2CCOCC2)nc(N2CCC(Nc3ccc(Br)cc3)CC2)n1 [1B25, N-(4-bromophenyl)-1-(4-(2-(difluoromethyl)-1H-benzo[d]imidazol-1-yl)-6-morpholino-1,3,5-triazin-2-yl)piperidin-4-amine] | – | > 50 | 30 to 50 | –
> 70 | > 70 | COc1ccccc1NC1CCN(c2nc(N3CCOCC3)nc(-n3c(C(F)F)nc4ccccc43)n2)CC1 [1B28, 1-(4-(2-(difluoromethyl)-1H-benzo[d]imidazol-1-yl)-6-morpholino-1,3,5-triazin-2-yl)-N-(2-methoxyphenyl)piperidin-4-amine] | – | > 50 | 30 to 50 | –
> 70 | > 70 | O=C(N(c1ccc(F)cc1)c1nc(N2CCOCC2)nc(N2CCC(Oc3ccccc3)CC2)n1)C(F)(F)F [1A5, 2,2,2-trifluoro-N-(4-fluorophenyl)-N-(4-morpholino-6-(4-phenoxypiperidin-1-yl)-1,3,5-triazin-2-yl)acetamide] | 30 to 50 | 30 to 50 | > 50 | –
> 70 | > 70 | Cc1cccc(OC2CCN(c3nc(N4CCOCC4)nc(-n4c(C(F)F)nc5ccccc54)n3)CC2)c1 [1B11, 4-(4-(2-(difluoromethyl)-1H-benzo[d]imidazol-1-yl)-6-(4-(m-tolyloxy)piperidin-1-yl)-1,3,5-triazin-2-yl)morpholine] | 30 to 50 | – | > 50 | –
50 to 70 | – | COc1ccc(OC2CCN(c3nc(N4CCOCC4)nc(-n4c(C(F)F)nc5ccccc54)n3)CC2)cc1 [1B2, 4-(4-(2-(difluoromethyl)-1H-benzo[d]imidazol-1-yl)-6-(4-(4-methoxyphenoxy)piperidin-1-yl)-1,3,5-triazin-2-yl)morpholine] | > 50 | > 50 | 30 to 50 | –
> 70 | > 70 | O=C(N(c1ccccc1)c1nc(N2CCOCC2)nc(N2CCC(Oc3ccc(OC(F)(F)F)cc3)CC2)n1)C(F)(F)F [1A9, 2,2,2-trifluoro-N-(4-morpholino-6-(4-(4-(trifluoromethoxy)phenoxy)piperidin-1-yl)-1,3,5-triazin-2-yl)-N-phenylacetamide] | > 50 | > 50 | 30 to 50 | –
